The experiment has as its system C57B/L6J mice fed CDAHFD. Put plainly: CDAHFD diet-induced NASH associated hepatic fibrosis mouse model. It counts as in vivo. The conditions noted are these: sc infusion two weeks, 5 mg/kg BW/day. The procedure:
Wild-type C57B/L6J male mice were purchased from Janvier Labs (Le Genest Saint Isle, France). Mice were caged in animal rooms under specific pathogen free conditions at the animal facility of Rangueil (Anexplo platform, US006, Toulouse, France) with a light/dark schedule of 12 h/12 h. At the initiation of the dietary intervention, all animals were 8 weeks old and were fed ad libitum with a normal chow diet (#V1535 R/M-H, Ssniff, Germany). All animal experimental procedures were conducted in accordance with institutional guidelines on animal experimentation approved by the local ethical committee of animal care and are conformed to the guidelines from Directive 2010/63/EU of the European Parliament on the protection of animals used for scientific purposes or the NIH guideline.
8 weeks old mice were fed for 6 week a choline-deficient, L-amino acid-defined, high-fat diet (CDAHFD #A06071302, Research Diet, USA) consisting of 60 kcal % fat and 0.1% methionine by weight. For the 2 last weeks of the 6-week period, a group of mice were implanted with an osmotic pump containing the peptide of formula (I). Briefly, 200 μL osmotic pump were filled with 10 mg/mL of the peptide of formula (I) in PBS and were implanted subcutaneously into the mice according to the manufacturer's instructions (Alzet®, model pump #2002), to insure the peptide of formula (I) release at an estimated rate of 0.5 μL/h, which corresponds to an estimated amount of delivery of 5 mg of the peptide of formula (I) per kilogram of body weight per day (5 mg/kg BW/day). The control group was composed of mice that underwent the same chirurgical procedure used for osmotic pump implantation (sham-operated mice).
Liver histology. […] Fibrosis was assessed by Sirius Red staining. […]
Hepatic hydroxyproline was determined by hydrolizing 80-140 mg liver in a 6N HCl solution, overnight, at 110 degrees Celsius. […] Absorbance was measured at 550 nm and the results are expressed as micrograms of hepatic hydroxyproline per mg tissue.

Take “Ac-RGAGSIREAGGAFGKREQAEEERYFRAQSRE-NH2 [peptide of formula (I), CH3CO-[SEQ ID NO: 1]-NH2]”: the “collagen deposition (Sirius Red staining)” value (p<0.01 vs sham-operated mice) is “less collagen deposition”. Also, under “p<0.05 vs sham-operated mice”, the “decrease in the concentration of hydroxyproline content per milligram of liver” value is “more than 35%”. In addition, the “CDAHFD diet-induced increase of hepatic fibrosis” value (vs sham-operated mice) is “significantly attenuated”.

The values are drawn from patent US20230050846A1, “TREATMENT OF HEPATIC AND CARDIOVASCULAR DISORDERS” (LIFESEARCH, priority 2019, published 2023).
